Like-named read-outs stand apart in the source and are kept apart here. Starred links: 1 amine or outer side, 2 acyl side, 3 side chain; linkers in the order of their positions; H or OH if unused. Positions of bridges follow the written chain, without caps; N, C: chain ends. Non-standard residues stand in square brackets, D forms with d. Residues, ends and D or L forms follow the SMILES beside them. No end group written: not given here. ACHC(1S,2S) = O=C([C@H]1CCCC[C@@H]1N[*:1])[*:2]; X1 = O=C([C@@H]1CCC[C@H]1N[*:1])[*:2]; X2 = O=C([C@H]1CCC[C@@H]1N[*:1])[*:2]
T1: human factor XIIa (activated blood coagulation factor XII) (human, UniProt P00748 20-615, limits assumed, biotinylated (site not stated))
T1 construct: The construct used for SPR, for the Ki assay and for the cocrystal is not described; The same entry is used for all three; also called FXIIa; FXIIA
T1 sequence (looked up): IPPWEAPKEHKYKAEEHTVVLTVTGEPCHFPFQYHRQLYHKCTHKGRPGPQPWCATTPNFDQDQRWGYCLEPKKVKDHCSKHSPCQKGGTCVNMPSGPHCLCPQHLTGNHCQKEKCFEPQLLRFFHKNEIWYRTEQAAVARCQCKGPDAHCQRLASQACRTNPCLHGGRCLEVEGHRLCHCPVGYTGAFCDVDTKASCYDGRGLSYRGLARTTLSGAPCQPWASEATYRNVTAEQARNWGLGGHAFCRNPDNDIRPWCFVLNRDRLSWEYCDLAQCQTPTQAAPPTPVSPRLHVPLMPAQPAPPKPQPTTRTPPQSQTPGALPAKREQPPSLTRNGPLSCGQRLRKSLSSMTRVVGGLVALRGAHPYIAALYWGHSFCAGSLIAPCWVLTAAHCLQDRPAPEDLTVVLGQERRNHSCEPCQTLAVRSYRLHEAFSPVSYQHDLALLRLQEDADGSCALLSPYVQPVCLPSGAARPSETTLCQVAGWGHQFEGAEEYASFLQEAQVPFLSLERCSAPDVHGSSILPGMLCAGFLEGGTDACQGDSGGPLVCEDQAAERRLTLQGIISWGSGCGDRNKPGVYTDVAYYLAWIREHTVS


Legend:
[1] = biological target: human factor XIIa (FXIIa) (Homo sapiens, UniProt P00748); test: biochemical; details: for kon: read-out: ka
FXIIa [2] = biological target: T2, FXIIa (Homo sapiens, UniProt P00748); test: biochemical
[3] = biological target: interferon γ receptor 1 (IFNGR1) (Homo sapiens, UniProt P15260); test: biochemical; details: for kon: read-out: ka
FXIIa [4] = biological target: T2, FXIIa; details: reference protein inhibitor against FXIIa; cited from earlier work
[5] = biological target: human factor XIIa (activated blood coagulation factor XII) (human) (UniProt P00748); test: SPR, Biacore T200, 25 C, single cycle kinetics, 1:1 model
[6] = biological target: T1, human factor XIIa (activated blood …); test: as above
[7] = biological target: T1, human factor XIIa (activated blood …); test: SPR, Biacore T200, 25 C, single cycle kinetics, 1:1 model; peptide F2A (drawing CHEM-US-00044, read number 0), control variant of F2
[8] = biological target: T1, human factor XIIa (activated blood …); test: inhibition of FXIIa cleavage of the chromogenic substrate S-2302 (H-D-Pro-Phe-Arg-pNA), absorbance at 405 nm

Molecule	kon [1] [M⁻¹ s⁻¹]	Kd [3] [nM]	kon [3] [M⁻¹ s⁻¹]	further results
CC(C)C[C@@H]1NC(=O)[C@H](CCCNC(=N)N)NC(=O)[C@H](C)NC(=O)[C@H](CCCNC(=N)N)NC(=O)[C@H]([C@@H](C)O)NC(=O)[C@H](CO)NC(=O)[C@H](CCCNC(=N)N)NC(=O)[C@H](CC(=O)O)NC(=O)[C@H](CC(N)=O)NC(=O)[C@@H](Cc2ccc(O)cc2)NC(=O)CSC[C@H](C(N)=O)NC(=O)[C@H](C)NC(=O)[C@H](C(C)C)NC1=O [F1A] ({CH2CO}-[dY]NDRSTRARLVA[dC]-NH2; thioether N-13)	580000			
CC(C)C[C@@H]1NC(=O)[C@H](CCCNC(=N)N)NC(=O)[C@@H]2CCC[C@H]2NC(=O)[C@H](CCCNC(=N)N)NC(=O)[C@H]([C@@H](C)O)NC(=O)[C@H](CO)NC(=O)[C@H](CCCNC(=N)N)NC(=O)[C@H](CC(=O)O)NC(=O)[C@H](CC(N)=O)NC(=O)[C@@H](Cc2ccc(O)cc2)NC(=O)CSC[C@H](C(=O)NCC(N)=O)NC(=O)[C@H](C)NC(=O)[C@H](C(C)C)NC1=O [F1] ({CH2CO}-[dY]NDRSTR[X1]RLVA[dC]G-NH2; thioether N-13)	2.74e+06			Kd [1]: 8.21 nM; Ki (FXIIa [2]): 22.1 nM
CC(C)C[C@@H]1NC(=O)[C@H](Cc2ccc(O)cc2)NC(=O)[C@H](CO)NC(=O)[C@H](C)NC(=O)[C@H](CC(N)=O)NC(=O)[C@H](Cc2ccccc2)NC(=O)[C@H](CC(C)C)NC(=O)[C@H](CCCNC(=N)N)NC(=O)[C@@H]2CCCN2C(=O)[C@@H](Cc2ccc(O)cc2)NC(=O)CSC[C@H](C(N)=O)NC(=O)[C@H](CCCNC(=N)N)NC(=O)[C@H](CCCNC(=N)N)NC1=O [F2A] ({CH2CO}-[dY]PRLFNASYLRR[dC]-NH2; thioether N-13)	4.75e+06			
CC(C)C[C@@H]1NC(=O)[C@H](Cc2ccc(O)cc2)NC(=O)[C@H](CO)NC(=O)[C@@H]2CCC[C@H]2NC(=O)[C@H](CC(N)=O)NC(=O)[C@H](Cc2ccccc2)NC(=O)[C@H](CC(C)C)NC(=O)[C@H](CCCNC(=N)N)NC(=O)[C@@H]2CCCN2C(=O)[C@@H](Cc2ccc(O)cc2)NC(=O)CSC[C@H](C(=O)NCC(N)=O)NC(=O)[C@H](CCCNC(=N)N)NC(=O)[C@H](CCCNC(=N)N)NC1=O [F2] ({CH2CO}-[dY]PRLFN[X1]SYLRR[dC]G-NH2; thioether N-13)	3.07e+07			Kd [1]: 0.58 nM; Ki (FXIIa [2]): 2.14 nM
CC(C)C[C@@H]1NC(=O)[C@H]2CCCC[C@@H]2NC(=O)[C@H](CCCNC(=N)N)NC(=O)[C@H](CCCNC(=N)N)NC(=O)[C@H](CC(=O)O)NC(=O)[C@H](Cc2ccc(O)cc2)NC(=O)[C@H](C)NC(=O)[C@H](Cc2ccccc2)NC(=O)[C@@H](Cc2ccc(O)cc2)NC(=O)CSC[C@H](C(=O)NCC(N)=O)NC(=O)[C@H](Cc2ccc(O)cc2)NC(=O)[C@H](CC(N)=O)NC(=O)[C@H](CCCNC(=N)N)NC(=O)[C@H]2CCCC[C@@H]2NC(=O)[C@H](CC(N)=O)NC(=O)[C@H](CC(N)=O)NC(=O)[C@H](CO)NC1=O [F3] ({CH2CO}-[dY]FAYDRR[ACHC(1S,2S)]LSNN[ACHC(1S,2S)]RNY[dC]G-NH2; thioether N-17)	1.59e+06			
CC(C)C[C@@H]1NC(=O)[C@H](CCCNC(=N)N)NC(=O)[C@H](CC(N)=O)NC(=O)[C@H]2CCCC[C@@H]2NC(=O)[C@H]([C@@H](C)O)NC(=O)[C@H](Cc2ccc(O)cc2)NC(=O)[C@H](CCCNC(=N)N)NC(=O)[C@@H](Cc2ccc(O)cc2)NC(=O)CSC[C@H](C(=O)NCC(N)=O)NC(=O)[C@H](C)NC(=O)[C@H](CC(N)=O)NC(=O)[C@H]2CCCC[C@@H]2NC(=O)[C@H](Cc2ccccc2)NC1=O [F4] ({CH2CO}-[dY]RYT[ACHC(1S,2S)]NRLF[ACHC(1S,2S)]NA[dC]G-NH2; thioether N-13)	550000			Kd [1]: 15.5 nM; Ki (FXIIa [2]): 4.32 nM
CC(C)[C@@H]1NC(=O)CNC(=O)[C@H](Cc2ccccc2)NC(=O)[C@@H](Cc2ccc(O)cc2)NC(=O)CSC[C@H](C(=O)NCC(N)=O)NC(=O)[C@H]([C@@H](C)O)NC(=O)[C@H](CCCNC(=N)N)NC(=O)[C@H](CC(N)=O)NC(=O)[C@H](Cc2ccc(O)cc2)NC(=O)[C@H](Cc2ccccc2)NC(=O)[C@@H]2CCC[C@H]2NC(=O)[C@H](CCCNC(=N)N)NC1=O [I1-1] ({CH2CO}-[dY]FGVR[X1]FYNRT[dC]G-NH2; thioether N-12)		5	1.74e+06	
CC(C)C[C@@H]1NC(=O)CNC(=O)[C@H](C(C)C)NC(=O)[C@@H](Cc2ccc(O)cc2)NC(=O)CSC[C@H](C(=O)NCC(N)=O)NC(=O)[C@H]([C@@H](C)O)NC(=O)[C@H](CCCNC(=N)N)NC(=O)[C@H](CC(N)=O)NC(=O)[C@H](CC(C)C)NC(=O)[C@H](CO)NC(=O)[C@@H]2CCC[C@H]2NC(=O)[C@H](CC(N)=O)NC1=O [I1-3] ({CH2CO}-[dY]VGLN[X1]SLNRT[dC]G-NH2; thioether N-12)		150	1.41e+06	
CC(C)C[C@@H]1NC(=O)[C@H](CO)NC(=O)[C@H](Cc2ccccc2)NC(=O)[C@@H](Cc2ccc(O)cc2)NC(=O)CSC[C@H](C(=O)NCC(N)=O)NC(=O)CNC(=O)[C@H](CCCNC(=N)N)NC(=O)[C@H](CO)NC(=O)[C@H](CCCNC(=N)N)NC(=O)[C@H](CC(N)=O)NC(=O)[C@H](Cc2ccccc2)NC(=O)[C@H](CO)NC(=O)[C@@H]2CCC[C@H]2NC(=O)[C@H](CCCNC(=N)N)NC1=O [I1-4] ({CH2CO}-[dY]FSLR[X1]SFNRSRG[dC]G-NH2; thioether N-14)		5.76	3.39e+06	
CC(C)C[C@@H]1NC(=O)[C@H](C)NC(=O)[C@H](Cc2ccccc2)NC(=O)[C@@H](Cc2ccc(O)cc2)NC(=O)CSC[C@H](C(=O)NCC(N)=O)NC(=O)[C@H](CCCNC(=N)N)NC(=O)[C@H](CCCNC(=N)N)NC(=O)[C@H](CC(N)=O)NC(=O)[C@H]2CCCC[C@@H]2NC(=O)[C@H](CCCNC(=N)N)NC(=O)[C@@H]2CCC[C@H]2NC(=O)[C@H](CC(N)=O)NC1=O [I1-5] ({CH2CO}-[dY]FALN[X1]R[ACHC(1S,2S)]NRR[dC]G-NH2; thioether N-12)		336	3.01e+06	
CC(C)[C@@H]1NC(=O)CNC(=O)[C@H](Cc2ccccc2)NC(=O)[C@@H](Cc2ccc(O)cc2)NC(=O)CSC[C@H](C(=O)NCC(N)=O)NC(=O)[C@H]([C@@H](C)O)NC(=O)[C@H](CCCNC(=N)N)NC(=O)[C@H](CC(N)=O)NC(=O)[C@H](Cc2ccc(O)cc2)NC(=O)[C@H](Cc2ccccc2)NC(=O)[C@@H]2CCC[C@H]2NC(=O)[C@H]2CCC[C@@H]2NC1=O [I1-6] ({CH2CO}-[dY]FGV[X2][X1]FYNRT[dC]G-NH2; thioether N-12)		1.87	920000	
CC(C)C[C@@H]1NC(=O)[C@H](CC(N)=O)NC(=O)[C@H](Cc2ccc(O)cc2)NC(=O)[C@H](CCCNC(=N)N)NC(=O)[C@@H]2CCCN2C(=O)[C@@H](Cc2ccc(O)cc2)NC(=O)CSC[C@H](C(=O)NCC(N)=O)NC(=O)[C@H](CC(N)=O)NC(=O)[C@@H]2CCC[C@H]2NC(=O)[C@H](Cc2ccccc2)NC(=O)[C@H](CCCNC(=N)N)NC(=O)[C@@H]2CCCN2C(=O)[C@H](CO)NC(=O)[C@H](C)NC(=O)CNC(=O)[C@H]2CCC[C@@H]2NC1=O [I2] ({CH2CO}-[dY]PRYNL[X2]GASPRF[X1]N[dC]G-NH2; thioether N-16)		12.3	1.98e+06	
corn trypsin inhibitor [CTI]				Ki (FXIIa [4]): 24 nM
YNDRSTRXRLVAC (not fully specified; 1: D-Tyr, N-acetylated (from N-chloroacetyl-D-Tyr), the acetyl joined by a thioether bond to the thiol of D-Cys 13 (cyclic peptide); 8 (X, printed '2'): (1R,2R)-2-ACPC; 13: D-Cys) [F1]				koff [5]: 0.0225 s⁻¹
YRYTXNRLFXNAC (not fully specified; 1: D-Tyr, N-acetylated (from N-chloroacetyl-D-Tyr), thioether to D-Cys 13 (cyclic peptide); 5 and 10 (X, printed '1'): (1S,2S)-2-ACHC; 13: D-Cys) [F4]				koff [5]: 0.0085 s⁻¹
YPRLFNXSYLRRC (not fully specified; 1: D-Tyr, N-acetylated (from N-chloroacetyl-D-Tyr), thioether to D-Cys 13 (cyclic peptide); 7 (X, printed '2'): (1R,2R)-2-ACPC; 13: D-Cys) [F2]				koff [5]: 0.0178 s⁻¹
{CH2CO}-[dY]PRLFNASYLRR[dC] (thioether N-13, also called negative control peptide of F2) [F2A]				koff [6]: 0.438 s⁻¹; Kd [7]: 92.2 nM
{CH2CO}-[dY]FAYDRR[ACHC(1S,2S)]LSNN[ACHC(1S,2S)]RNY[dC] (thioether N-17, Made by solid-phase synthesis with the C-terminal TGTGT linker omitted; The formula f3 in the summary and claims ends in RNT; also called yFAYDRR1LSNN1RNYc) [F3]				Kd [6]: 0.98 nM; koff [6]: 0.0016 s⁻¹; Ki [8]: 1.02 nM
{CH2CO}-[dY]NDRSTRARLVA[dC] (thioether N-13, also called negative control peptide of F1; Ala mutant F1A) [F1A]				Kd [6]: 51.3 nM; koff [6]: 0.0297 s⁻¹

Reference: patent US20230117920A1, “Library Construction Method, Cyclic Peptide, FXIIa Binder and IFNGR1 Binder” (The University of Tokyo, priority 2019, published 2023)
